Entries after “also recorded” stand apart in the source; their conditions may differ.
Assays:
[1] = tested on: receptors with high estradiol affinity in the vaginal epithelium; conditions: cited from earlier work; for affinity for vaginal epithelium receptors (decreasing order): female
[2] = tested on: vulvo-vaginal mucous membrane; conditions: in vivo; cited from earlier work
[3] = tested on: vaginal mucous membrane / endometrium; conditions: 25 μg of 17β-estradiol per vaginal tablet, cited from earlier work
[4] = plasma estradiol after vaginal administration (pharmacokinetic analysis); format: in vivo, human (patients)
Method: Pharmacokinetic analysis: From a pharmacokinetic viewpoint, the plasmic estradiol concentrations remained unquantifiable in the group of subjects after administration of low doses (2.5 μg and 5 μg) and in half of the subjects at a high dose (10 μg).
(§1) General conclusion: After a single vaginal administration of a soft capsule with 2.5 μg, 5 μg and 10 μg doses of 17β-estradiol, clinical tolerance was excellent for the group of six subjects included in the trial. Biological tolerance was also excellent.

[5] = tested on: vaginal estrogenic receptors; conditions: cited from earlier work; for agonist/antagonist properties: estrogenic receptors; for effect on endogenous estradiol: in the presence of endogenous estrogen
[6] = plasma estrone after vaginal administration of 17β-estradiol; format: in vivo, human (patients)
Method: In all cases, the estrone concentrations never exceeded 30 pg/ml.
as §1

[7] = 10 μg, micronized free form, vaginal

Row | SMILES | affinity for vaginal estrogenic receptors ([1]; in words) | affinity for vaginal epithelium receptors (decreasing order) [1] | local blood flow [2] | quantity of vaginal secretions [2] | transvaginal potential difference [2] | trophic effect in the vulvo-vaginal mucous membrane [2] | vaginal pH [2] | cytological, histological and clinical improvement in the vaginal mucous membrane ([3]; daily) | endometrial proliferation ([3]; daily) | systemic passage of 17β-estradiol ([3]; indicated by endometrial proliferation) | vaginal absorption of estradiol from soft capsules ([4]; 2.5 μg to 10 μg doses of 17β-estradiol) | systemic passage [4, 7] | time of plasmic peak after administration [4, 7] | vaginal resorption of estradiol ([4]; capsules with 2.5 μg and 5 μg doses of 17β-estradiol) | agonist/antagonist properties [5] | effect on endogenous estradiol [5] | plasmic estrone amounts after vs before treatment ([6]; capsule with 10 μg dose of 17β-estradiol, the other subjects) | estrone concentrations after vs before treatment ([6]; in general, after 17β-estradiol 2.5 μg, 5 μg and 10 μg, soft capsule) | proportionality between estrone Cmax or SSC and the administered dose ([6]; in vivo) | intrinsic activity relative to 17β-estradiol ([5]; compared with 17β-estradiol)
1 | C[C@]12CC[C@@H]3c4ccc(O)cc4CC[C@H]3[C@@H]1CC[C@@H]2O [17β-estradiol] | high affinity | 17β-estradiol>estriol>estrone | increase | increase | increase the transvaginal potential difference | recognized and has been widely described | reduce the vaginal pH | desired cytological, histological and clinical improvement | endometrial proliferation was noted in certain patients | systemic passage | substantially zero | only slight systemic passage is observed | about one | zero | physiological estrogenic agonist; also recorded: pure agonist; also recorded: complete agonist | adding effects in the presence of endogenous estrogen | comparable with the amounts measured before treatment | of the same order of magnitude as those measured before treatment | no proportionality | 
2 | C[C@]12CC[C@@H]3c4ccc(O)cc4CC[C@H]3[C@@H]1CCC2=O [estrone] |  | 17β-estradiol>estriol>estrone |  |  |  |  |  |  |  |  |  |  |  |  |  |  |  |  |  | 
3 | C[C@]12CC[C@@H]3c4ccc(O)cc4CC[C@H]3[C@@H]1C[C@@H](O)[C@@H]2O [estriol] |  | 17β-estradiol>estriol>estrone |  |  |  |  |  |  |  |  |  |  |  |  | partially agonist properties and even antagonist properties | antagonistic effect on endogenous estradiol |  |  |  | less active

— patent publication US6060077A, “Unit galenical formulation for local hormonotherapy of vaginal dryness” (priority 1995, dated 2000)
